Assay results reported in patent US8338468B2, “Microbicidal composition” (ISP Investments Inc., priority 2005, dated 2012).
“And” between values parts separate entries of the source, which are not always exact repeats. Equal values may be shown once. Read-outs that look alike come from different tables or passages of the source.

Assays:
Test in all cases: Synergy test (MIC) in Ringer's Solution
Assay type in all cases: cell-based
Proteus Mirabilis = settings: 30° C., about 10^5 microbes per ml; for MIC: Proteus mirabilis
Method: (§1) Synergy tests were conducted using microbiological standard methods. Ringer's Solution (Merck, VWR) was used for testing bacteria, yeast and mould species. In jars 100 ml aliquots of sterile Ringer Solution are dosed with the preservatives and a known inoculum of the single test species is added. A control sample containing no preservative is also used to ascertain the biocide effect on the inoculum. The prepared jars were incubated at 30° C. Aliquots are streaked out at regular intervals on specific nutrient agar so that an estimate of kill time can be determined at the same time as effective concentration. TSA (tryptic soy agar) was used for bacteria; MEA (malt extract agar) was used for yeast and moulds. The plates were visually evaluated for microbial growth to determine the MIC after various incubation times at 30° C. The synergy of the combinations of the present invention was determined against four bacteria, Pseudomonas aeruginosa, Escherichia coli, Proteus Mirabilis, and Staphylococcus aureus, a yeast, Candida albicans and two moulds Trichoderma viride and Aspergillus niger. The single micro-organisms were used at a concentration of about 10^5 microbes per ml. these micro-organisms are standard reference organisms and representative of natural contaminants in many consumer and industrial applications. […] In each test first component (A) was MIT and the second component was phenylethylalcohol (B).

Candida albicans = settings: 30° C., about 10^5 microbes per ml; for MIC: Candida albicans
Method: as §1

Staphylococcus aureus = settings: 30° C., about 10^5 microbes per ml; for MIC: Staphylococcus aureus
Method: as §1

Trichoderma viride = settings: 30° C., about 10^5 microbes per ml; for MIC: Trichoderma viride
Method: as §1

Escherichia coli = settings: 30° C., about 10^5 microbes per ml; for MIC: Escherichia coli
Method: as §1

Aspergillus niger = settings: 30° C., about 10^5 microbes per ml; for MIC: Aspergillus niger
Method: as §1

Pseudomonas aeruginosa = settings: 30° C., about 10^5 microbes per ml; for MIC: Pseudomonas aeruginosa
Method: as §1

[1] = phenylethylalcohol alone, read-out: QB, ppm phenylethylalcohol acting alone, which produced an end point (MIC)
[2] = MIT alone, Test 1 single, Test 2.1-2.3 parallel samples
[3] = MIT alone, Test 1 single, Test 2.1-2.3 parallel samples, read-out: QA, ppm MIT acting alone, which produced an end point (MIC)

## OCCc1ccccc1 [phenylethylalcohol]
Proteus Mirabilis; [1]
  MIC: 2000 µg/mL
Candida albicans; [1]
  MIC: 2000 µg/mL
Candida albicans; phenylethylalcohol alone
  QB, ppm phenylethylalcohol acting alone, which produced an end point (MIC): 2500 ppm and 1500 ppm
Staphylococcus aureus; [1]
  MIC: 2000 µg/mL
Staphylococcus aureus; phenylethylalcohol alone
  QB, ppm phenylethylalcohol acting alone, which produced an end point (MIC): 1500 ppm
Trichoderma viride; [1]
  MIC: 2000 µg/mL
Trichoderma viride; phenylethylalcohol alone
  QB, ppm phenylethylalcohol acting alone, which produced an end point (MIC): 3000 ppm
Escherichia coli; [1]
  MIC: 2500 µg/mL
Escherichia coli; phenylethylalcohol alone
  QB, ppm phenylethylalcohol acting alone, which produced an end point (MIC): 2000 ppm
Aspergillus niger; [1]
  MIC: 1500 µg/mL
Aspergillus niger; phenylethylalcohol alone
  QB, ppm phenylethylalcohol acting alone, which produced an end point (MIC): 2000 ppm
Pseudomonas aeruginosa; [1]
  MIC: 2000 µg/mL
Pseudomonas aeruginosa; phenylethylalcohol alone
  QB, ppm phenylethylalcohol acting alone, which produced an end point (MIC): 2500 ppm

## Cn1sccc1=O [MIT, 2-methyl-3-isothiazolone]
Proteus Mirabilis; [2]
  QA, ppm MIT acting alone, which produced an end point (MIC): 25 ppm
Proteus Mirabilis; [3]
  MIC: 50 µg/mL
Candida albicans; [3]
  MIC: 50 µg/mL
Staphylococcus aureus; [2]
  QA, ppm MIT acting alone, which produced an end point (MIC): 50 ppm
Staphylococcus aureus; [3]
  MIC: 75 µg/mL
Trichoderma viride; [2]
  QA, ppm MIT acting alone, which produced an end point (MIC): 50 ppm
Trichoderma viride; [3]
  MIC: 75 µg/mL
Escherichia coli; [3]
  MIC: 25 µg/mL
Escherichia coli; [2]
  QA, ppm MIT acting alone, which produced an end point (MIC): 50 ppm
Aspergillus niger; [3]
  MIC: 50 µg/mL
Pseudomonas aeruginosa; [2]
  QA, ppm MIT acting alone, which produced an end point (MIC): 25 ppm
Pseudomonas aeruginosa; [3]
  MIC: 50 µg/mL
